As a reminder, the IC50 is the midpoint of a concentration-inhibition curve. As a reminder, the AC50 is the concentration giving half of the maximal activity seen.

Holding throughout (assay type): cell-based
One assay has as its system HTT mRNA. Put plainly: Splicing assay (RT-qPCR) monitoring HTT splice variants, canonical (CJ) and alternative (AJ) junction. To be noted: 50% response, A673 or K562 cell line, 24 hours; for IC50: decrease in CJ mRNA; for AC50: increase in AJ mRNA. The procedure:
(§1) Compounds described herein were used to modulate RNA transcript abundance in cells. The expression of a target mRNA was measured by detecting the formation of an exon-exon junction in the canonical transcript (CJ). A compound mediated exon-inclusion event was detected by observing an increase in formation of a new junction with an alternative exon (AJ). Real-time qPCR assays were used to detect these splicing switches and interrogate the potency of various compounds towards different target genes. A high-throughput real time quantitative PCR (RT-qPCR) assay was developed to measure these two isoforms of the mRNA (CJ and AJ) for an exemplary gene, HTT, together with a control housekeeping gene, GAPDH or GUSB or PPIA, used for normalization. Briefly, the A673 or K562 cell line was treated with various compounds described herein (e.g., compounds of Formula (I)). After treatment, the levels of the HTT mRNA targets were determined from each sample of cell lysate by cDNA synthesis followed by qPCR.
• Cells-to-CT 1-step kit: ThermoFisher A25602, Cells-to-CT lysis reagent: ThermoFisher 4391851C, TaqMan™ Fast Virus 1-Step Master Mix: ThermoFisher 4444436 • GAPDH: VIC-PL, ThermoFisher 4326317E (Assay: Hs99999905_ml)—used for K562/suspension cell lines • GUSB: VIC-PL, ThermoFisher 4326320E (Assay: Hs99999908_ml)—used for K562/suspension cell lines • PPIA: VIC-PL, ThermoFisher 4326316E (Assay: Hs99999904_ml)—used for A673/adherent cell lines
(§2) The A673 cell line was cultured in DMEM with 10% FBS. Cells were diluted with full growth media and plated in a 96-well plate (15,000 cells in 100ul media per well). The plate was incubated at 37° C. with 5% CO2 for 24 hours to allow cells to adhere. An 11-point 3-fold serial dilution of the compounds was made in DMSO then diluted in media in an intermediate plate. Compounds were transferred from the intermediate plate to the cell plate with the top dose at a final concentration of 10 uM in the well. Final DMSO concentration was kept at or below 0.25%. The cell plate was returned to the incubator at 37° C. with 5% CO2 for an additional 24 hours.
(§3) The K562 cell line was cultured in IMDM with 10% FBS. For K562, cells were diluted with full growth media and plated in either a 96-well plate (50,000 cells in 50 uL media per well) or a 384-well plate (8,000-40,000 cells in 45 uL media per well). An 11-point 3-fold serial dilution of the compounds were made in DMSO then diluted in media in an intermediate plate. Compound was transferred from the intermediate plate to the cell plate with the top dose at a final concentration of 10 uM in the well. Final DMSO concentration was kept at or below 0.25%. Final volume was 100 uL for 96-well plate and 50 uL for 384-well plate. The cell plate was then placed in an incubator at 37° C. with 5% CO2 for 24 hours.
The cells were then gently washed with 50 uL-100 uL cold PBS before proceeding to addition of lysis buffer. 30 uL-50 uL of room temperature lysis buffer with DNAse I (and optionally RNAsin) was added to each well. Cells were shaken/mixed thoroughly at room temperature for 5-10 minutes for lysis to take place and then 3 uL-5 uL of room temperature stop solution was added and wells were shaken/mixed again. After 2-5 minutes, the cell lysate plate was transferred to ice for RT-qPCR reaction setup. The lysates could also be frozen at −80° C. for later use.
In some cases, a direct lysis buffer was used. An appropriate volume of 3X lysis buffer (10 mM Tris, 150 mM NaCl, 1.5%-2.5% Igepal and 0.1-1 U/uL RNAsin, pH 7.4) was directly added to either K562 or A673 cells in media and mixed by pipetting 3 times. The plates were then incubated at room temperature with shaking/rocking for 20-50 minutes to allow for lysis to take place. After this time, the cell lysate plate was transferred to ice to set up for the RT-qPCR reactions. The lysates could also be frozen at −80° C. for later use. […]

The subject of the next assay is HTT CJ mRNA. Put plainly: Gene panel canonical junction qPCR assay, HTT. To be noted: Table 6, decrease in CJ mRNA, read-out: HTT IC50 (decrease in CJ mRNA levels). The protocol:
as §1, §2, §3
(§4) The data analysis was performed by first determining the ΔCt vs the housekeeper gene. This ΔCt was then normalized against the DMSO control (ΔΔCt) and converted to RQ (relative quantification) using the 2^(−ΔΔCt) equation. The RQ were then converted to a percentage response by arbitrarily setting an assay window of 3.5 ΔCt for HTT-CJ and an assay window of 9 ΔCt for HTT-AJ. […] The percentage response was then fitted to the 4 parametric logistic equation to evaluate the concentration dependence of compound treatment. The increase in AJ mRNA is reported as AC50 (compound concentration having 50% response in AJ increase) while the decrease in CJ mRNA levels is reported as IC50 (compound concentration having 50% response in CJ decrease).
(§5) Additional studies were carried out for a larger panel of genes using the protocol provided above. The junction between flanking upstream and downstream exons was used to design canonical junction qPCR assays. At least one of the forward primer, reverse primer or the CY5-labeled 5′ nuclease probe (with 3′ quencher such as ZEN/Iowa Black FQ) was designed to overlap with the exon junction to capture the CJ mRNA transcript. BLAST was used to confirm the specificity of the probeset and parameters such as melting temperature, GC content, amplicon size, and primer dimer formation are considered during their design. Data for the decrease in CJ mRNA levels for three exemplary genes (HTT, SMN2, and Target C) analyzed in this panel are reported as IC50 (compound concentration having […] in CJ decrease).

In another assay the test system is SMN2 CJ mRNA. The assay is described as follows: Gene panel canonical junction qPCR assay, SMN2. The note with it: Table 6, decrease in CJ mRNA, read-out: SMN2 IC50 (decrease in CJ mRNA levels). The procedure: as §1, §2, §3, §4, §5
(In qPCR the cycle at which signal appears reflects the starting amount.)

Another assay has as its system Target C CJ mRNA. Put plainly: Gene panel canonical junction qPCR assay, Target C. The note with it: Table 6, decrease in CJ mRNA, read-out: Target C IC50 (decrease in CJ mRNA levels). The protocol:
as §1, §2, §3, §4, §5

Structures are written as SMILES. Where a name gives a salt, the structure may show the parent alone. Where only a bound is given, the exact number is not on record here.

`Cc1nc2c(F)cc(-n3cc4sc(C5CCNCC5)cc4n3)cc2o1` [Compound 167]: the IC50 lay within 0.1 to 1 µM in the assay with HTT mRNA, 0.1 to 1 µM with HTT CJ mRNA, 0.1 to 1 µM in the assay with SMN2 CJ mRNA and 1 to 10 µM in the assay with Target C CJ mRNA. In the assay with HTT mRNA, this compound showed an AC50 of 0.1 to 1 µM.
In the case of `Cc1cn2cc(-c3nc4sc(C5CCNCC5)cc4s3)cc(C)c2n1` [Compound 140, 4-(2-[2,8-dimethylimidazo[1,2-a]pyridin-6-yl]thieno[2,3-d][1,3]thiazol-5-yl)piperidine hydrochloride], the IC50 in the assay with HTT mRNA was under 0.1 µM; with HTT CJ mRNA, under 0.1 µM; with SMN2 CJ mRNA, under 0.1 µM; in the assay with Target C CJ mRNA it was 0.1 to 1 µM. In addition, the AC50 with HTT mRNA was under 0.1 µM.
Regarding `Cc1cn2nc(-n3cc4cc(C5CCNCC5)sc4n3)nc2c(C)n1` [Compound 163, 4-(2-{6,8-dimethyl-[1,2,4]triazolo [1,5-a]pyrazin-2-yl}thieno[2,3-c]pyrazol-5-yl)piperidine], the IC50 with HTT mRNA, in the assay with HTT CJ mRNA, in the assay on SMN2 CJ mRNA and with Target C CJ mRNA was 1 to 10 µM each time. Further, the AC50 with HTT mRNA lay in the range of 1 to 10 µM.
Take `Cn1cc2cc(-c3nc4sc(N5CCNC6(CC6)C5)cc4s3)cc(F)c2n1` [Compound 136, 5-(5-[4,7-diazaspiro[2.5]octan-7-yl]thieno[2,3-d][1,3]thiazol-2-yl)-7-fluoro-2-methylindazole]: the IC50 was over 10 µM in the assay with HTT mRNA, over 10 µM with HTT CJ mRNA, 0.1 to 1 µM in the assay on SMN2 CJ mRNA and over 10 µM with Target C CJ mRNA. Besides, the AC50 in the assay on HTT mRNA is over 10 µM.
For the compound `CN1CCC(n2cc3cc(-c4cc(F)c5nn(C)cc5c4)sc3n2)CC1` [Compound 150, 7-fluoro-2-methyl-5-[2-(1-methylpiperidin-4-yl)thieno[2,3-c]pyrazol-5-yl]indazole], the IC50 in the assay on HTT mRNA was 0.1 to 1 µM; with HTT CJ mRNA, 0.1 to 1 µM; in the assay with SMN2 CJ mRNA, under 0.1 µM; in the assay with Target C CJ mRNA it was 0.1 to 1 µM. Moreover, in the assay on HTT mRNA, the AC50 lay in the range of 0.1 to 1 µM.
In the case of `Cc1cn2cc(-c3nc4sc(C5CCNCC5)cc4s3)ncc2n1` [Compound 205, 4-(2-{2-methylimidazo[1,2-a]pyrazin-6-yl}thieno[2,3-d][1,3]thiazol-5-yl)piperidine], the IC50 with HTT mRNA, in the assay with HTT CJ mRNA, in the assay on SMN2 CJ mRNA and in the assay with Target C CJ mRNA was 1 to 10 µM each time. The same compound showed an AC50 in the assay on HTT mRNA of 1 to 10 µM.
For `Cn1cc2cc(-c3cc4cn(C5CCNCC5)nc4s3)c(C#N)cc2n1` [Compound 211], the IC50 in the assay with HTT mRNA was 1 to 10 µM; with HTT CJ mRNA, 1 to 10 µM; in the assay on SMN2 CJ mRNA, 0.1 to 1 µM; with Target C CJ mRNA it was 1 to 10 µM. Besides, in the assay with HTT mRNA, the AC50 was in the range of 1 to 10 µM.
Take `Cc1cn2nc(-c3cc4sc(C5CCNCC5)nc4s3)cc(C)c2n1` [Compound 125, 4-(5-[2,8-dimethylimidazo[1,2-b]pyridazin-6-yl]thieno [2,3-d][1,3]thiazol-2-yl) piperidine]: the IC50 fell in the range of 0.1 to 1 µM with HTT mRNA, 0.1 to 1 µM in the assay with HTT CJ mRNA, 0.1 to 1 µM with SMN2 CJ mRNA and 1 to 10 µM with Target C CJ mRNA. This compound also returned a concentration at half-maximal activity (AC50) in the assay with HTT mRNA of 0.1 to 1 µM.
Consider `Cn1cc2cc(-c3nc4sc(N5CCNC(C)(C)C5)cc4s3)cc(F)c2n1` [Compound 142, 5-[5-(3,3-dimethylpiperazin-1-yl)thieno[2,3-d][1,3]thiazol-2-yl]-7-fluoro-2-methylindazole], for which the IC50 is 0.1 to 1 µM in the assay on HTT mRNA, 0.1 to 1 µM in the assay on HTT CJ mRNA, under 0.1 µM in the assay with SMN2 CJ mRNA and 1 to 10 µM in the assay on Target C CJ mRNA. In the assay with HTT mRNA, this compound registered an AC50 of 0.1 to 1 µM.
For the compound `CN1CCCC2(CCN2c2cc3sc(-c4cc(F)c5nn(C)cc5c4)nc3s2)C1` (stereo not drawn) [Compound 203, 1-[2-(7-fluoro-2-methylindazol-5-yl)thieno[2,3-d][1,3]thiazol-5-yl]-6-methyl-1,6-diazaspiro[3.5]nonane], the IC50 is over 10 µM in the assay on HTT mRNA, over 10 µM with HTT CJ mRNA, 1 to 10 µM in the assay on SMN2 CJ mRNA and over 10 µM in the assay with Target C CJ mRNA. Further, in the assay with HTT mRNA, the AC50 was over 10 µM.
Consider `COc1c(-c2cc3cn(C4CCNCC4)nc3s2)cc2cn(C)nc2c1F` [Compound 218], for which the IC50 in the assay with HTT mRNA is under 0.1 µM; in the assay with HTT CJ mRNA, under 0.1 µM; in the assay on SMN2 CJ mRNA, under 0.1 µM; with Target C CJ mRNA it was 0.1 to 1 µM. The same compound displayed an AC50 with HTT mRNA of 0.1 to 1 µM.
As to `Cn1cc2cc(-c3nc4sc(N5CCC56CCNCC6)cc4s3)cc(F)c2n1` [Compound 201, 1-[2-(7-fluoro-2-methylindazol-5-yl)thieno[2,3-d] [1,3]thiazol-5-yl]-1,7-diazaspiro[3.5]nonane], the IC50 in the assay on HTT mRNA, in the assay with HTT CJ mRNA, in the assay on SMN2 CJ mRNA and in the assay with Target C CJ mRNA was over 10 µM in each case. The same compound gave an AC50 with HTT mRNA of over 10 µM.
Consider `Cn1cc2c(F)cc(-c3nc4sc(C5CCNCC5)cc4s3)cc2n1` [Compound 131, 4-fluoro-2-methyl-6-[5-(piperidin-4-yl)thieno[2,3-d][1,3]thiazol-2-yl]indazole], for which the IC50 in the assay on HTT mRNA, in the assay on HTT CJ mRNA, with SMN2 CJ mRNA and in the assay with Target C CJ mRNA was 1 to 10 µM in each case. In the assay with HTT mRNA, this compound had an AC50 of 1 to 10 µM.
Turning to `Cc1nc2c(F)cc(-n3cc4cc(C5CCNCC5)sc4n3)cc2o1` [Compound 157], the IC50 is 0.1 to 1 µM with HTT mRNA, 0.1 to 1 µM in the assay on HTT CJ mRNA, under 0.1 µM in the assay on SMN2 CJ mRNA and 0.1 to 1 µM in the assay with Target C CJ mRNA. This compound yielded an AC50 in the assay with HTT mRNA of 0.1 to 1 µM.
Regarding `CN(c1cc2sc(-c3ccc(-c4cn[nH]c4)cc3O)nc2s1)[C@@H]1C[C@H]2CC[C@@H](C1)N2` [Compound 191, 2-{5-[(1R,3R,5S)-8-azabicyclo[3.2.1]octan-3-yl(methyl)amino]thieno[2,3-d][1,3]-thiazol-2-yl}-5-(1H-pyrazol-4-yl)phenol], the IC50 with HTT mRNA, in the assay with HTT CJ mRNA, with SMN2 CJ mRNA and with Target C CJ mRNA was over 10 µM throughout. Besides, the AC50 with HTT mRNA was over 10 µM.
